Read-outs that look alike come from different tables or passages of the source.
Key:
[1] = molecular target: T1, full-length recombinant rat vitamin D receptor (Rattus norvegicus, UniProt P13053); experiment: Vitamin D receptor binding, competition with [3H]-1,25(OH)2D3; conditions: FIG. 1
T1 construct: Full-length recombinant rat receptor was expressed in E. coli BL21 (DE3) Codon Plus RIL cells; His tag (C); made in house; host or cells: E. coli BL21 (DE3) Codon Plus RIL
T1 sequence (P13053 1-423): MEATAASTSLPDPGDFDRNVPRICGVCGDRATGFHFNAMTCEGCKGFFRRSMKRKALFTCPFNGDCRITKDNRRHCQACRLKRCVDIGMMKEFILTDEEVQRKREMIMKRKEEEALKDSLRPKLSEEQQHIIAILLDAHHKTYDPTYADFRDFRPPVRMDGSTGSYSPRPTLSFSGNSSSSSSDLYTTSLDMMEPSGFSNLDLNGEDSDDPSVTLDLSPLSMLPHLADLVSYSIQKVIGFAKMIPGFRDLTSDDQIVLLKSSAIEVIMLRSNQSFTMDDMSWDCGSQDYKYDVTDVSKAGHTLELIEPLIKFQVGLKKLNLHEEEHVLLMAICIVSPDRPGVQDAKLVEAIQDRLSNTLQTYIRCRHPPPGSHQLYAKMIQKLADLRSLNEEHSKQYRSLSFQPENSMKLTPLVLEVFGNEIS
Method: Full-length recombinant rat receptor was expressed in E. coli BL21 (DE3) Codon Plus RIL cells and purified to homogeneity using two different column chromatography systems. The first system was a nickel affinity resin that utilizes the C-terminal histidine tag on this protein. The protein that was eluted from this resin was further purified using ion exchange chromatography (S-Sepharose Fast Flow). Aliquots of the purified protein were quick frozen in liquid nitrogen and stored at −80° C. until use. For use in binding assays, the protein was diluted in TEDK50 (50 mM Tris, 1.5 mM EDTA, pH7.4, 5 mM DTT, 150 mM KCl) with 0.1% Chaps detergent. The receptor protein and ligand concentration were optimized such that no more than 20% of the added radiolabeled ligand was bound to the receptor.
Radiolabeled and unlabeled ligands were added to 100 mcl of the diluted protein at a final ethanol concentration of ≦10%, mixed and incubated overnight on ice to reach binding equilibrium. The following day, 100 mcl of hydroxylapatite slurry (50%) was added to each tube and mixed at 10-minute intervals for 30 minutes. The hydroxylapaptite was collected by centrifugation and then washed three times with Tris-EDTA buffer (50 mM Tris, 1.5 mM EDTA, pH 7.4) containing 0.5% Titron X-100. […] Total binding was determined from the tubes containing only radiolabeled ligand.

HL-60 cells = experiment: HL-60 differentiation (nitro blue tetrazolium reduction assay); assay type: cell-based, human; conditions: FIG. 2; for EC50: read-out: EC50, HL-60 cell differentiation
Method: The study drugs were dissolved in ethanol and the concentrations determined using UV spectrophotometry. Serial dilutions were prepared so that a range of drug concentrations could be tested without changing the final concentration of ethanol (≦0.2%) present in the cell cultures.
Human promyelocytic leukemia (HL60) cells were grown in RPMI-1640 medium containing 10% fetal bovine serum. The cells were incubated at 37° C. in the presence of 5% CO2.
HL60 cells were plated at 1.2×10^5 cells/ml. Eighteen hours after plating, cells in duplicate were treated with drug. Four days later, the cells were harvested and a nitro blue tetrazolium reduction assay was performed (Collins et al., 1979; J. Exp. Med. 149:969-974). The percentage of differentiated cells was determined by counting a total of 200 cells and recording the number that contained intracellular black-blue formazan deposits. Verification of differentiation to monocytic cells was determined by measuring phagocytic activity (data not shown).

[2] = system: 24-hydroxylase (24Ohase) gene promoter; experiment: In vitro transcription assay, luciferase reporter in ROS 17/2.8 (bone) cells; assay type: cell-based; conditions: FIG. 3; for EC50: ROS 17/2.8 cells, read-out: EC50, transcriptional activity in bone cells
Method: Transcription activity was measured in ROS 17/2.8 (bone) cells that were stably transfected with a 24-hydroxylase (24Ohase) gene promoter upstream of a luciferase reporter gene (Arbour et al., 1998). Cells were given a range of doses. Sixteen hours after dosing the cells were harvested and luciferase activities were measured using a luminometer.
RLU=Relative Luciferase Units.

[3] = Bone calcium mobilization (serum calcium) in vitamin D-deficient rats; assay type: in vivo, rat; conditions: FIG. 4; for bone calcium mobilization: ip
Method: (§1) Male, weanling Sprague-Dawley rats were placed on Diet 11 (0.47% Ca) diet+AEK for one week followed by Diet 11 (0.02% Ca)+AEK for 3 weeks. The rats were then switched to a diet containing 0.47% Ca for one week followed by two weeks on a diet containing 0.02% Ca. Dose administration began during the last week on 0.02% calcium diet. Four consecutive ip doses were given approximately 24 hours apart. Twenty-four hours after the last dose, blood was collected from the severed neck and the concentration of serum calcium determined as a measure of bone calcium mobilization. The first 10 cm of the intestine was also collected for intestinal calcium transport analysis using the everted gut sac method.

[4] = Intestinal calcium transport, everted gut sac method, in vitamin D-deficient rats; assay type: in vivo, rat; conditions: FIG. 5; for intestinal calcium transport: everted gut sac
Method: as §1

| Ki ([1]; full-length recombinant rat VDR) [nM] | binding to the receptor compared to 1,25-(OH)2D3 ([1]; in words) | EC50 (HL-60 cells; Homo sapiens, HL-60) [nM] | SMILES | potency on HL-60 cell differentiation compared to 1,25(OH)2D3 (HL-60 cells; in words) | EC50 [2] [nM] | transcriptional activity in bone cells compared to 1α,25-dihydroxyvitamin D3 ([2]; in words) | bone calcium mobilization ([3]; 260 pmol/day for 4 consecutive days, rats on low calcium diet (0.02%)) | bone calcium mobilization ([3]; 7020 pmol/day, rats on low calcium diet (0.02%)) | bone calcium mobilization activity compared to 1,25(OH)2D3 ([3]; in words, overall) | intestinal calcium transport ([4]; 260 pmol/day) | intestinal calcium transport ([4]; 7020 pmol/day) | intestinal calcium transport activity compared to 1,25(OH)2D3 ([4]; in words, overall) | EC50 (HL-60 cells) [nM] | serum calcium levels ([3]; all dosages, rats on low calcium diet (0.02%)) |
| --- | --- | --- | --- | --- | --- | --- | --- | --- | --- | --- | --- | --- | --- | --- |
| 0.3 | bound equally to the receptor | 1 | C=C1[C@H](O)CC(=C/C=C2\CCC[C@]3(C)[C@@H]([C@@H](C)/C=C/C[C@H](C)O)CC[C@@H]23)C[C@H]1O [SS-22, 2-methylene-(20S,25S)-19,27-dinor-(22E)-1α,25-dihydroxyvitamin D3] | as potent as 1,25(OH)2D3 | 0.1 | about the same transcriptional activity | did not result in mobilization of bone calcium | without any substantial effect | very little bone calcium mobilization activity | promotes intestinal calcium transport only slightly | significant intestinal calcium transport activity was recorded | very little activity |  |  |
|  |  |  | C=C1/C(=C\C=C2/CCC[C@]3(C)[C@@H]([C@H](C)CCCC(C)(C)O)CC[C@@H]23)C[C@@H](O)C[C@@H]1O [1,25(OH)2D3, 1α,25-dihydroxyvitamin D3, reference compound] |  | 0.2 |  |  |  |  | promotes a significant increase |  |  | 2 | increased serum calcium levels at all dosages |

— patent US8114859B2, “2-methylene-(20S,25S)-19,27-dinor-(22E)-vitamin D analogs” (Wisconsin Alumni Research Foundation, priority 2006, dated 2012)
